Some test systems named below: BT-549; SW-620; SK-MEL-28; MDA-N; SK-MEL-2; SN12C; LOX IMVI; OVCAR-3; SK-OV-3; HL-60; U-251; 786-0; EKVX; OVCAR-8; HOP-62; CAKI-1; RXF 393; SF-539; TK-10; Hs-578T.
Common to all, as to assay: DTP human tumour cell line panel, 48 h

Molecules are shown by their SMILES.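 Cells were grown in 96-well plates and exposed to each compound for 48 hours at five concentrations; endpoints were interpolated linearly between bracketing concentrations, or set to the highest concentration if not reached. GI50 is the concentration that inhibits growth by half.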 The source made the active and inactive calls. Rule as the data show it: active = GI50 up to about 1.1 µM and inactive = higher. Some results are limits rather than exact numbers.

Regarding `C#CCSc1nc(-c2ccco2)n[nH]1`, the GI50 in the test on BT-549, in the test with SW-620, with SK-MEL-28, in the test on MDA-N, in the test on SK-MEL-2 and in the test on SN12C was > 100 µM (inactive) in each case. Moreover, the GI50 in the test with LOX IMVI, with OVCAR-3, with SK-OV-3, with HL-60, with U-251 and in the test on 786-0 was > 100 µM (inactive) in each case. The GI50 in the test with EKVX was > 100 µM (inactive); in the test on OVCAR-8, > 100 µM (inactive); in the test with HOP-62 it was 49.3 µM (inactive); in the test on CAKI-1, > 100 µM (inactive); in the test on RXF 393, > 100 µM (inactive); in the test with SF-539, > 100 µM (inactive). Also, the GI50 with TK-10 and with Hs-578T was > 100 µM (inactive) each time.
Turning to `Cc1cccc2c(N)c3cccc(C(=O)NCC[N+](C)(C)Cc4ccc(S(C)(=O)=O)cc4)c3nc12`, the GI50 in the test on BT-549 was > 100 µM (inactive); in the test with SW-620, 56.4 µM (inactive); in the test on SK-MEL-28, > 100 µM (inactive); in the test with MDA-N, > 100 µM (inactive); with SK-MEL-2 it was 98.4 µM (inactive); with SN12C it was 2.9 µM (inactive). The GI50 is 28.8 µM (inactive) in the test on LOX IMVI; 67 µM (inactive) in the test on OVCAR-3; 33.6 µM (inactive) in the test on SK-OV-3; 2.8 µM (inactive) in the test with HL-60; 45.6 µM (inactive) in the test with U-251; 28 µM (inactive) with 786-0. For the same compound, the GI50 with EKVX was > 91.2 µM (inactive); in the test with OVCAR-8, 79.6 µM (inactive); in the test on HOP-62, 27.7 µM (inactive); in the test with CAKI-1, 26.1 µM (inactive); in the test with RXF 393 it was 76.7 µM (inactive); with SF-539, 32.4 µM (inactive). Besides, the GI50 in the test with TK-10 is > 89.1 µM (inactive); in the test on Hs-578T it was 19.9 µM (inactive).
Turning to `O=C(O)CC(NC(=O)/C(=C/c1ccccc1)NC(=O)c1ccccc1)C(=O)O` (stereo not drawn), the GI50 in the test on BT-549, in the test on SW-620, in the test with SK-MEL-28, in the test with MDA-N, in the test with SK-MEL-2 and with SN12C was > 100 µM (inactive) throughout. The GI50 in the test with LOX IMVI, in the test with OVCAR-3, in the test with SK-OV-3, in the test with HL-60, in the test on U-251 and with 786-0 was > 100 µM (inactive) throughout. The GI50 in the test on EKVX, in the test on OVCAR-8, with HOP-62, in the test on CAKI-1, in the test with RXF 393 and in the test with SF-539 was > 100 µM (inactive) throughout. The GI50 in the test with TK-10 and in the test on Hs-578T was > 100 µM (inactive) throughout.
As for `CC(C)/C(Cl)=N\OC(=O)Nc1ccc(F)cc1F`, the GI50 is 13 µM (inactive) in the test on BT-549; 1.78 µM (inactive) with SW-620; 11 µM (inactive) in the test on SK-MEL-28; 9.33 µM (inactive) in the test with MDA-N; 13.6 µM (inactive) in the test with SK-MEL-2; 6.78 µM (inactive) with SN12C. In addition, the GI50 with LOX IMVI is 1.66 µM (inactive); in the test on OVCAR-3 it was 2.68 µM (inactive); in the test with SK-OV-3, 17.1 µM (inactive); in the test with HL-60 it was 0.486 µM (active); with U-251, 18 µM (inactive); in the test on 786-0, 3.9 µM (inactive). In addition, the GI50 with EKVX is 6.53 µM (inactive); in the test on OVCAR-8, 15.6 µM (inactive); in the test with HOP-62 it was 17.6 µM (inactive); in the test on CAKI-1, 19.3 µM (inactive); with RXF 393, 3.72 µM (inactive); with SF-539 it was 15.8 µM (inactive). Moreover, the GI50 is 5.19 µM (inactive) in the test on TK-10 and 23.3 µM (inactive) in the test on Hs-578T.
With `S=C1N=C(Cl)/C(=C\c2ccccc2)N1`, the GI50 with BT-549, with SW-620, in the test on SK-MEL-28, with MDA-N, in the test on SK-MEL-2 and with SN12C was > 100 µM (inactive) throughout. Moreover, the GI50 in the test on LOX IMVI, in the test on OVCAR-3, with SK-OV-3, in the test on HL-60, in the test on U-251 and in the test with 786-0 was > 100 µM (inactive) in each case. The GI50 in the test with EKVX, in the test on OVCAR-8, with HOP-62, in the test on CAKI-1, in the test with RXF 393 and with SF-539 was > 100 µM (inactive) in each case. For the same compound, the GI50 in the test on TK-10 and in the test with Hs-578T was > 100 µM (inactive) throughout.
As to `COc1cc(N(Cc2ccc3nc(OC)c(OC)nc3c2)Cc2ccc3nc(OC)c(OC)nc3c2)cc(OC)c1OC`, the GI50 was 6.78 µM (inactive) in the test on BT-549; > 50 µM (inactive) in the test with SW-620; > 50 µM (inactive) in the test on SK-MEL-28; > 50 µM (inactive) with MDA-N; 20.9 µM (inactive) in the test with SK-MEL-2; > 50 µM (inactive) in the test with SN12C. For the same compound, the GI50 with LOX IMVI was > 50 µM (inactive); in the test on OVCAR-3, 31.5 µM (inactive); with SK-OV-3, 29.1 µM (inactive); in the test on HL-60, > 50 µM (inactive); in the test with U-251, 19.8 µM (inactive); in the test on 786-0 it was 16.3 µM (inactive). Further, the GI50 was 39.3 µM (inactive) with EKVX; > 50 µM (inactive) in the test on OVCAR-8; 1.3 µM (inactive) in the test on HOP-62; > 50 µM (inactive) with CAKI-1; 10.7 µM (inactive) in the test with RXF 393; 26.3 µM (inactive) in the test with SF-539. In addition, the GI50 in the test with TK-10 was 30.8 µM (inactive); in the test on Hs-578T, 7.67 µM (inactive).
As for `CC1C(C#N)(C#N)C(C#N)=C(N)C1(Cl)[N+](=O)[O-]` (stereo not drawn), the GI50 was 13.3 µM (inactive) in the test with BT-549; 2.17 µM (inactive) in the test on SW-620; 9.04 µM (inactive) in the test on MDA-N; 25.6 µM (inactive) in the test on SK-MEL-2; 8.18 µM (inactive) in the test on SN12C; 5.32 µM (inactive) in the test on LOX IMVI. Further, the GI50 in the test with OVCAR-3 was 10 µM (inactive); in the test on SK-OV-3, 17 µM (inactive); in the test with HL-60 it was 2.37 µM (inactive); with U-251 it was 17.1 µM (inactive); in the test on 786-0 it was 5.48 µM (inactive); with EKVX, 17.8 µM (inactive). In addition, the GI50 with OVCAR-8 is 14.9 µM (inactive); with HOP-62, 3.08 µM (inactive); in the test with CAKI-1, 5.4 µM (inactive); with RXF 393, 4.33 µM (inactive); with SF-539, 11.5 µM (inactive); in the test on TK-10 it was 14.9 µM (inactive). Besides, in the test on Hs-578T, the GI50 was 16.1 µM (inactive).
As for `CC(=O)N1C(c2[nH]c3ccccc3c2-c2ccccc2)CCN1c1ccccc1` (stereo not drawn), the GI50 with BT-549, in the test with SW-620, in the test with SK-MEL-28, in the test with MDA-N, in the test on SK-MEL-2 and with SN12C was > 10 µM (inactive) each time. The GI50 in the test on LOX IMVI, in the test on OVCAR-3, with SK-OV-3, with HL-60, in the test on 786-0 and in the test with EKVX was > 10 µM (inactive) throughout. Further, the GI50 in the test on OVCAR-8, in the test with HOP-62, in the test on CAKI-1, in the test with RXF 393, in the test on SF-539 and in the test on TK-10 was > 10 µM (inactive) each time. Besides, in the test on Hs-578T, the GI50 is > 10 µM (inactive).
For the compound `Cc1ccc(/N=N/c2ccc(N)cc2C)c(S(N)(=O)=O)c1`, the GI50 in the test with BT-549 was > 100 µM (inactive); with SW-620 it was > 100 µM (inactive); in the test with SK-MEL-28, > 100 µM (inactive); in the test on MDA-N, 71.9 µM (inactive); in the test with SK-MEL-2 it was > 100 µM (inactive); with SN12C, > 100 µM (inactive). The GI50 was 78.5 µM (inactive) in the test on LOX IMVI; 50.4 µM (inactive) in the test on OVCAR-3; > 100 µM (inactive) in the test with SK-OV-3; 29.6 µM (inactive) with HL-60; > 100 µM (inactive) in the test on U-251; > 100 µM (inactive) in the test on 786-0. Further, the GI50 with EKVX is 26.1 µM (inactive); in the test on OVCAR-8 it was 76.7 µM (inactive); in the test with HOP-62 it was > 100 µM (inactive); in the test on CAKI-1 it was > 100 µM (inactive); with RXF 393, > 100 µM (inactive); in the test with SF-539, > 100 µM (inactive). Also, the GI50 in the test with TK-10 was 48.9 µM (inactive); in the test with Hs-578T it was 63 µM (inactive).
`CC(=O)O[C@H]1C(=O)[C@@]2(C)[C@H]([C@H](OC(=O)c3ccccc3)[C@]3(O)C[C@H](OC(=O)[C@H](O)[C@@H](NC(=O)OC(C)(C)C)c4ccco4)C(C)=C1C3(C)C)[C@]1(OC(C)=O)CO[C@@H]1C[C@@H]2O`: the GI50 was < 0.005 µM (active) in the test on BT-549; < 0.005 µM (active) with SW-620; 0.205 µM (active) in the test on SK-MEL-28; < 0.005 µM (active) with MDA-N; 0.00723 µM (active) with SK-MEL-2; < 0.005 µM (active) in the test with SN12C. In addition, the GI50 with LOX IMVI is 0.00546 µM (active); in the test on OVCAR-3, 0.00769 µM (active); in the test with SK-OV-3 it was < 0.005 µM (active); in the test on HL-60, < 0.005 µM (active); in the test with U-251, 0.00661 µM (active); with 786-0 it was 0.00614 µM (active). Also, the GI50 is 14.7 µM (inactive) with EKVX; 0.00615 µM (active) with OVCAR-8; 0.00804 µM (active) in the test with HOP-62; 0.00802 µM (active) in the test with CAKI-1; 0.00899 µM (active) in the test on RXF 393; 0.00553 µM (active) in the test with SF-539. In addition, the GI50 was 0.0116 µM (active) in the test on TK-10 and < 0.005 µM (active) in the test with Hs-578T.

(Values after ChEMBL document CHEMBL1201862, “PubChem BioAssay data set” (2004).)
